From ChEMBL document CHEMBL3045133, “A 2D image-based method for modeling some c-Src tyrosine kinase inhibitors” (Med Chem Res, 2013)

Target: Proto-oncogene tyrosine-protein kinase Src (Homo sapiens, UniProt P12931)
Experiment: Inhibition of c-Src kinase (unknown origin)

Sequence of Proto-oncogene tyrosine-protein kinase Src (P12931 2-536 limits assumed): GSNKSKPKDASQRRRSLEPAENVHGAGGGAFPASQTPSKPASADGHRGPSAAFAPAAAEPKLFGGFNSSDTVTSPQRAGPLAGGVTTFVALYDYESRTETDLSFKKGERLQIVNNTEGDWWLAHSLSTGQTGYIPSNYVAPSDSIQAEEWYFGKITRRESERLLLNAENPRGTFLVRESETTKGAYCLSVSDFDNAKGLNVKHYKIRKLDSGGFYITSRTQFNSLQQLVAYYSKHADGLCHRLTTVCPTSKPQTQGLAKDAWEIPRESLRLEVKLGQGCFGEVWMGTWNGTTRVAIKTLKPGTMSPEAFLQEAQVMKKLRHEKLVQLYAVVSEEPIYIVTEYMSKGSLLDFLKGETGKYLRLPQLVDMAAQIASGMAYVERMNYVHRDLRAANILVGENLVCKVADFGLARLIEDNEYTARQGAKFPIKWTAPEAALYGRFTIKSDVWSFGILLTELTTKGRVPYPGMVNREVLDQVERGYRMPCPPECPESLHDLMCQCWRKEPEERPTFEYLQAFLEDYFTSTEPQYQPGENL

- IC50: 6.31 µM
SMILES: Cc1ccccc1-c1cn(-c2ccccc2)c2ncnc(N)c12
